Results: ChEMBL document CHEMBL4340538, “Cynaropicrin and inhibition of NF-κB activation: A structure activity relationship study” (Bioorg Med Chem Lett, 2019)
Calls of active or inactive are those of the source. The rule behind the calls is not given here.

What was measured:
Type in all cases: cell-based
HEK293 [1] = assay: Inhibition of TNFalpha-induced NFkappaB activation in human HEK293 cells expressing pGL4.32 [luc2p/NF-kBRE/Hygro] assessed as NFkappaB activity by measuring relative light units at 0.75 uM incubated for 2 hrs followed by TNFalpha addition and measured after 5 hrs by luciferase reporter gene assay
HEK293 [2] = assay: Inhibition of TNFalpha-induced NFkappaB activation in human HEK293 cells expressing pGL4.32 [luc2p/NF-kBRE/Hygro] assessed as NFkappaB activity by measuring relative light units at 1.5 uM incubated for 2 hrs followed by TNFalpha addition and measured after 5 hrs by luciferase reporter gene assay
HEK293 [3] = assay: Cytotoxicity against human HEK293 cells at 3 uM after 7 hrs by WST-8 assay; conditions: hek293, 7 h
HEK293 [4] = assay: Cytotoxicity against human HEK293 cells at 0.75 uM to 3 uM after 7 hrs by WST-8 assay; conditions: hek293, 7 h
HEK293 [5] = assay: Inhibition of TNFalpha-induced NFkappaB activation in human HEK293 cells expressing pGL4.32 [luc2p/NF-kBRE/Hygro] assessed as NFkappaB activity by measuring relative light units at 3 uM incubated for 2 hrs followed by TNFalpha addition and measured after 5 hrs by luciferase reporter gene assay
HEK293 [6] = assay: Inhibition of TNFalpha-induced NFkappaB activation in human HEK293 cells expressing pGL4.32 [luc2p/NF-kBRE/Hygro] at 2.5 uM to 10 uM incubated for 2 hrs followed by TNFalpha addition and measured after 5 hrs by luciferase reporter gene assay
HEK293 [7] = assay: Inhibition of TNFalpha-induced NFkappaB activation in human HEK293 cells expressing pGL4.32 [luc2p/NF-kBRE/Hygro] at 80 uM incubated for 2 hrs followed by TNFalpha addition and measured after 5 hrs by luciferase reporter gene assay

Row | Compound | Activity (HEK293 [1]) | Activity (HEK293 [2]) | Activity (HEK293 [3]) | Activity (HEK293 [4]) | Activity (HEK293 [5]) | inhibition (HEK293 [6]) | inhibition (HEK293 [7])
1 | C=C(COC)C(=O)O[C@H]1CC(=C)[C@@H]2C[C@H](O)C(=C)[C@@H]2[C@H]2OC(=O)C(=C)[C@@H]21 | 161 RLU | 151 RLU | Non-Toxic | Non-Toxic | 137 RLU | – | –
2 | C=C(COCOC)C(=O)O[C@H]1CC(=C)[C@@H]2C[C@H](OCOC)C(=C)[C@@H]2[C@H]2OC(=O)C(=C)[C@@H]21 | 154 RLU | 98.3 RLU | Non-Toxic | Non-Toxic | 8.97 RLU | – | –
3 | C=C1C(=O)O[C@@H]2[C@H]3C(=C)[C@@H](O)C[C@H]3C(=C)C[C@H](OC(=O)C(C)CO)[C@@H]12 (some centres not stated) | 123 RLU | 135 RLU | Non-Toxic | Non-Toxic | 137 RLU | – | –
4 | C=C(COC)C(=O)O[C@H]1CC(=C)[C@@H]2C[C@H](OC)C(=C)[C@@H]2[C@H]2OC(=O)C(=C)[C@@H]21 | 174 RLU | 158 RLU | Non-Toxic | Non-Toxic | 134 RLU | – | –
5 | C=C1C(=O)O[C@@H]2[C@H]3C(=C)[C@@H](O)C[C@H]3C(=C)C[C@H](O)[C@@H]12 [DESACYLCYNAROPICRIN] | 127 RLU | 119 RLU | Non-Toxic | Non-Toxic | 96.4 RLU | – | –
6 | C=C1[C@@H]2[C@H]3OC(=O)C(C)[C@@H]3[C@@H](OC(=O)C(C)CO)CC(=C)[C@@H]2C[C@@H]1O (some centres not stated) | 123 RLU | 139 RLU | Non-Toxic | Non-Toxic | 137 RLU | – | –
7 | C=C(CO)C(=O)O[C@H]1CC(=C)[C@@H]2C[C@H](O)C(=C)[C@@H]2[C@H]2OC(=O)C(=C)[C@@H]21 [CYNAROPICRIN] | 134 RLU | 72.8 RLU | Non-Toxic | Non-Toxic | 5.67 RLU | Active | –
8 | C=C(COC(C)=O)C(=O)O[C@H]1CC(=C)[C@@H]2C[C@H](OC(C)=O)C(=C)[C@@H]2[C@H]2OC(=O)C(=C)[C@@H]21 | 171 RLU | 142 RLU | Non-Toxic | Non-Toxic | 93.5 RLU | – | –
9 | S=C(S)N1CCCC1 | – | – | – | – | – | – | Active
10 | C=C1C(=O)O[C@@H]2[C@H]3C(=C)[C@@H](OCOC)C[C@H]3C(=C)C[C@H](O)[C@@H]12 | 127 RLU | 125 RLU | Non-Toxic | Non-Toxic | 100 RLU | – | –
11 | C=C(COC(C)=O)C(=O)O[C@H]1CC(=C)[C@@H]2C[C@H](O)C(=C)[C@@H]2[C@H]2OC(=O)C(=C)[C@@H]21 | 130 RLU | 110 RLU | Non-Toxic | Non-Toxic | 33.8 RLU | – | –
